# Values of other authors in patent publication US5284873A (priority 1991, dated 1994).
# System: prostate
# Settings: treatment of the α-receptors with antagonists
row,SMILES,improvement in prostate patients
1,CC(COc1ccccc1)N(CCCl)Cc1ccccc1 (centres unmarked) [phenoxybenzamine],effective improvement
2,COc1cc2nc(N3CCN(C(=O)c4ccco4)CC3)nc(N)c2cc1OC [prazosin],effective improvement
